Experimental data as given in patent US12043602B2, “Fendiline derivatives” (The Board of Regents of the University of Texas System, priority 2019, dated 2024).
Where two headings read alike, the source gives them in different places.

Assays:
[1] = target: mGFP-K-RASG12V (Homo sapiens (Human), UniProt P01116, G12V); assay: K-Ras mislocalization assay (confocal microscopy, Manders coefficient); assay type: cell-based; set-up: key to Emax: Manders coefficient: fraction of mCherry-CAAX co-localizing with GFP-K-Ras; settings: MDCK cells; for IC50: 48 h treatment, read-out: IC50 (μM), KRASG12V mislocalization; for Emax: maximal effect, Manders coefficient; for Emax / EC50: 48 h; for EC50: batch 4 compounds, title calls it IC50, read-out: EC50
Method in brief: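 Readout is the Manders coefficient: share of mCherry-CAAX overlapping mGFP-K-RASG12V in confocal images, proportional to K-Ras mislocalization. Stable MDCK co-expressing lines were exposed 48 h to various drug concentrations or 0.1% DMSO vehicle, then paraformaldehyde-fixed.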

[2] = system: MDCK cells co-expressing GFP-K-RASG12V and mCherry-CAAX
[3] = target: HRAS (Homo sapiens (Human), UniProt P01112); settings: background statement; cited from earlier work
[4] = target: NRAS (Homo sapiens (Human), UniProt P01111); settings: background statement; cited from earlier work
[5] = system: MiaPaCa-2 (Mut) pancreatic tumor cells; assay: CyQUANT proliferation assay; assay type: cell-based; set-up: key to IC50 proliferation MiaPaCa-2 (Mut): NE—Not efficacious; settings: 72 h
Description: (§1) Madine Darby Canine Kidney epithelial cells (MDCK) stably co-expressing mGFP-tagged full length oncogenic mutant K-Ras (GFP—K-RASG12V) or mGFP-LactC2 (peptide probe for phosphatidylserine) and mCherry-tagged to the amino acids 179-189 of H-RasC181S, C184S (mCherry-CAAX, localizes primarily to endomembranes) were grown in DMEM-high glucose/sodium pyruvate/10% FBS. The medium was supplemented with 1× Penicillin/Streptomycin for fluorescence microscopy assays, to avoid any microbial contamination from the test compounds added. KLE and Hec50 cells were maintained in DMEM-F-12 medium supplemented with 10% FBS. Hec-1A and Hec-1B cells were grown in McCoy's 5a medium supplemented with 10% FBS. ESS-1 cells were grown in RPMI 1640 medium supplemented with 20% FBS. MPanc96 cells were grown in DMEM supplemented with 10% FBS, MiaPaCa-2 cells in DMEM supplemented with 10% FBS and 2.5% horse serum and all other cell lines were grown in RPMI 1640 supplemented with 10% FBS. All cancer cell media were supplemented with ×Penicillin/Streptomycin. All cell lines were grown at 37° C. with 5% CO2.
(§2) Cells were seeded in 96-well plates. After 24 h, fresh growth medium supplemented with 0.1% vehicle (DMSO), or various concentrations of drugs was added and cells were grown for 72 h. Cell numbers were quantified using the CyQUANT® Cell Proliferation Assay Kit (Molecular Probes, Life Technologies), according to the manufacturer's protocol. Fluorescence measurement was used as a measure of live cell number.

[6] = system: MOH (Mut) pancreatic tumor cells; assay: CyQUANT proliferation assay; assay type: cell-based; set-up: key to IC50 proliferation MOH (Mut): NE—Not efficacious; settings: 72 h
Description: as §1, §2

[7] = system: MPanc96 (Mut) pancreatic tumor cells; assay: CyQUANT proliferation assay; assay type: cell-based; set-up: key to IC50 proliferation MPanc96 (Mut): NE—Not efficacious; settings: 72 h
Description: as §1, §2

[8] = system: MDCK cells co-expressing GFP-K-RASG12V and mCherry-CAAX; assay: Cytotoxicity in mislocalization screen (death of all cells in well); settings: drug caused death of all cells in well at 30 μM
[9] = system: NCI H1975 (WT) lung tumor cells; assay: CyQUANT proliferation assay; assay type: cell-based; set-up: key to IC50 proliferation NCI H1975 (WT): NE—Not efficacious; settings: 72 h
Description: as §1, §2

[10] = system: NCI H522 (WT) lung tumor cells; assay: CyQUANT proliferation assay; assay type: cell-based; set-up: key to IC50 proliferation NCI H522 (WT): NE—Not efficacious; settings: 72 h
Description: as §1, §2

[11] = system: ESS-1 (WT) endometrial tumor cells; assay: CyQUANT proliferation assay; assay type: cell-based; set-up: key: NE—Not efficacious; settings: 72 h
Description: as §1, §2

[12] = system: Ishikawa (WT) endometrial tumor cells; assay: CyQUANT proliferation assay; assay type: cell-based; set-up: key to IC50 proliferation Ishikawa (WT): NE—Not efficacious; settings: 72 h
Description: as §1, §2

[13] = system: MiaPaCa-2 tumors; assay: In vivo tumor growth assay (xenograft); set-up: species or system nu/nu mice; settings: MiaPaCa2 xenografts in nude mice
Description: In Vivo Tumor Growth Assay. All animal studies were performed under an Institutional Animal Care and Use Committee (IACUC) approved animal protocol (AWC-15-0101), in accordance with the National Institutes of Health Guide for the Care and Use of Laboratory Animals. Early passage MiaPaCa-2 cells were harvested, and 2×10^6 cells were implanted into the right flanks of female nu/nu mice. The animals were randomized into control and treated groups (10 mice per group). Tumor volume (V) was measured with an external caliper every 3-4 days and it was calculated as V=0.52 (length×width2). Compound treatment was initiated when the tumor sizes reached 100 mm3. Compounds (12.5 mg/kg) were injected daily intraperitoneally for 5 days, with 2 days of no treatment in between. All treatments were continued until any of the subcutaneous tumors reached 1500 mm3 in volume, when all the animals were sacrificed, and the tumors removed.
Early passage BxPC-3 or MIAPaCa-2 cells were harvested, and 2-3X106 cells were implanted into the right flanks of nu/nu mice. The animals were randomized into control and treated groups (10 mice per group). Tumor volume (V) was measured with an external caliper every 3-4 days and it was calculated as V=0.52 (length×width2). Drug treatment was initiated 4 days after tumor implantation. Drugs were injected daily intraperitoneally (at doses indicated) for 5 days, with 2 days of no treatment in between. All treatments were continued until any of the subcutaneous tumors reached 1500 mm3 in volume or for 6 weeks (whichever was first), when all the animals were sacrificed and the tumors removed.
Next the effect of the selected PMLIs on the growth of oncogenic KRAS expressing MiaPaCa-2 cells implanted subcutaneously into the flanks of nu/nu immunosuppressed mice was determined. […] The animals were randomized into control and PMLI-treated groups (10 mice per group). Treatment was initiated when the tumors reached a mean volume of 100 mm^3. PMLIs were tested at 12.5, 7.5, 5, 2.5 and 1 mg/kg doses, administered once daily intraperitoneally for 5 days, with 2 days of no treatment in between for the duration of the experiment. […] There was no observed toxicity detected in any of the compound-treated groups during the experiment and, accordingly, there was no significant difference in the body weight of the animals in the different groups.

[14] = system: KLE (WT) endometrial tumor cells; assay: CyQUANT proliferation assay; assay type: cell-based; set-up: key: NE—Not efficacious; settings: 72 h
Description: as §1, §2

[15] = system: BxPC-3 (WT) pancreatic tumor cells; assay: CyQUANT proliferation assay; assay type: cell-based; set-up: key to IC50 proliferation BxPC-3 (WT): NE—Not efficacious; settings: 72 h
Description: as §1, §2

Row | IC50 [1] [µM] | Emax [1] | SMILES | Cytotoxic at 30 μM [8] | further results
1 | 5.59 | 0.811 | C[C@@H](NCCC(c1ccccc1)c1ccccc1)c1ccccc1 [AVA08, R-Fendiline, reference compound] |  | Cytotoxic at 30 μM [2]: Yes; effect on the PM localization of HRAS [3]: no effect; effect on the PM localization of NRAS [4]: no effect
2 | 0.29 | 0.891 | COc1ccc([C@@H](C)N(CC=C(c2ccccc2)c2ccccc2)C(=O)NC(C)(C)C)cc1 [NY0428, (R)-3-tert-butyl-1-(3,3-diphenylallyl)-1-(1-(4-methoxyphenyl)ethyl)urea] | No | IC50 proliferation MiaPaCa-2 (Mut) [5]: NE; IC50 proliferation MOH (Mut) [6]: NE; IC50 proliferation MPanc96 (Mut) [7]: NE
3 | 0.91 |  | CN1CCN(CCN(CC=C(c2ccccc2)c2ccccc2)C2(c3ccccc3)CC2)CC1 [NY0443, N-(3,3-diphenylallyl)-N-(2-(4-methylpiperazin-1-yl)ethyl)-1-phenylcyclopropanamine] | Yes | IC50 proliferation NCI H1975 (WT) [9]: NE; IC50 proliferation NCI H522 (WT) [10]: NE; IC50 proliferation ESS-1 (WT) [11]: NE; IC50 proliferation Ishikawa (WT) [12]: NE
4 | 0.73 | 0.732 | C(CN(CCN1CCCC1)C1(c2ccccc2)CC1)=C(c1ccccc1)c1ccccc1 [NY0444, N-(3,3-diphenylallyl)-1-phenyl-N-(2-(pyrrolidin-1-yl)ethyl)cyclopropanamine] | Yes | IC50 proliferation ESS-1 (WT) [11]: NE; IC50 proliferation Ishikawa (WT) [12]: NE
5 |  | 0.808 | C[C@H](c1ccc(F)cc1)N(CC=C(c1ccccc1)c1ccccc1)CCN1CCCC1 [NY0506, (R)-N-(1-(4-fluorophenyl)ethyl)-3,3-diphenyl-N-(2-(pyrrolidin-1-yl)ethyl)prop-2-en-1-amine] | Yes | EC50 [1]: 528 nM; minimum effective dose on tumor growth relative to fendiline [13]: more potent than fendiline
6 | 0.2 | 0.835 | C(CNC1(c2ccccc2)CC1)=C(c1ccccc1)c1ccccc1 [NY040402, N-(3,3-diphenylallyl)-1-phenylcyclopropanamine] | No | IC50 proliferation BxPC-3 (WT) [15]: NE; IC50 proliferation MiaPaCa-2 (Mut) [5]: NE; IC50 proliferation MOH (Mut) [6]: NE; IC50 proliferation MPanc96 (Mut) [7]: NE
7 | 0.05 | 0.852 | COc1ccc(-c2cc(C(=O)N(CCN3CCCC3)[C@H](C)c3ccc(F)cc3)no2)cc1 [PW323, (R)-N-(1-(4-Fluorophenyl)ethyl)-5-(4-methoxyphenyl)-N-(2-(pyrrolidin-1-yl)ethyl)isoxazole-3-carboxamide] | Yes | minimum effective dose on tumor growth relative to fendiline [13]: more potent than fendiline
8 |  | 0.414 | C[C@H](c1ccc(F)cc1)N(CC=C(c1ccccc1)c1ccccc1)CCNc1cc(-c2ccc(F)cc2)n[nH]1 [PW2100, (R)-N^1-(3,3-diphenylallyl)-N^2-(3-(4-fluorophenyl)-1H-pyrazol-5-yl)-N^1-(1-(4-fluorophenyl)ethyl)ethane-1,2-diamine] | No | 

Row | SMILES | IC50 [1] [µM] | Emax [1] | Cytotoxic at 30 μM [8] | further results
9 | COc1ccc([C@@H](C)N(CC=C(c2ccccc2)c2ccccc2)CCN2CC2)cc1 [NY0438, (R)-N-(2-(aziridin-1-yl)ethyl)-N-(1-(4-methoxyphenyl)ethyl)-3,3-diphenylprop-2-en-1-amine] | 5.1 | 0.754 |  | Cytotoxic at 30 μM [2]: No
10 | C[C@H](c1ccccc1)N(CC=C(c1ccccc1)c1ccccc1)CCN1CCN(C)CC1 [NY0513, (R)-N-(2-(4-methylpiperazin-1-yl)ethyl)-3,3-diphenyl-N-(1-phenylethyl)prop-2-en-1-amine] | 0.6 | 0.786 | Yes | EC50 [1]: 639 nM; Emax ([1]; listed as 15d): 0.79 ± 0.01; IC50 proliferation KLE (WT) [14]: NE
11 | C[C@H](c1ccc(F)cc1)N(C/C=C(/c1ccc(F)cc1)c1ccc(C(F)(F)F)cc1)CCN1CCCC1 [PW455, (R,E)-3-(4-fluorophenyl)-N-(1-(4-fluorophenyl)ethyl)-N-(2-(pyrrolidin-1-yl)ethyl)-3-(4-(trifluoromethyl)phenyl)prop-2-en-1-amine] | 1.86 | 0.821 | Yes at 10 uM | 
12 | COc1ccc(/C(=C\CN(CCN2CCCC2)[C@H](C)c2ccc(F)cc2)c2ccccc2)cc1 [PW460, (R,Z)-N-(1-(4-fluorophenyl)ethyl)-3-(4-methoxyphenyl)-3-phenyl-N-(2-(pyrrolidin-1-yl)ethyl)prop-2-en-1-amine] | 2.02 | 0.801 | Yes at 10 uM | 
